Results as given in US8048915B2, “Biologically active complex” (BioMas Ltd., priority 2001, dated 2011).
Where “and” joins values, the source holds several entries; their conditions need not be identical. Identical values can stand only once. Like-named read-outs stand apart in the source and are kept apart here.

Columns and labels:
[1] = test system: Ha-Ras transformed NIH-3T3 cells; assay: Colony growth of Ha-Ras transformed NIH-3T3 cells; assay type: cell-based
Experimental: 5×10^2 cells were plated per 60 mm dish and incubated with different concentrations (0.005-5 μg/ml) of the complex in PBS. A week later, the cells were stained with Gimsa and clones were counted. Similar experiments were conducted using V-mos transformed NIH-3T3 cells, and also using Ph2TeCl2 and Ph3TeCl, with both types of transformed cells.

[2] = test system: IL-2
Experimental: The complexes were administered in these dilutions, as drinking water, to male Balb-C mice, 6-8 weeks of age over a 4 day period. The exact amount of liquid intake was recorded daily. […] The cells were incubated at a concentration of 10^7 cells/ml in enriched RPMI containing 2 μg/ml of con-A for 24 hours at 37° C. The supernatants were collected and tested for IL-2 content.

[3] = test system: interleukin-2 (IL-2); conditions: single animals
Experimental: The test animals were Balb-c, male, mice, 6 to 8 weeks of age. […] The animals received the following injections:
Each of groups a, b, c and d consisted of 21 animals. The animals were sacrificed daily from 24 h to 7 days after injection. On each day, spleen cells from three of the animals from each control group were pooled together and processed by passing the spleen cells through a 60 mesh stainless steel net in a 5 mm Petri dish containing PBS in order to separate the cells. The cells were collected and centrifuged at 1000 rpm for 10 minutes. The supernatant was discarded and the cells were treated for two minutes with 5 ml of hypotonic buffer (0.15M NH4 Cl, 0.01M KHCO3 dissolved in double distilled water, pH 7.2) to kill the erythrocytes. Thereafter, PBS was added to the cells and the cells were centrifuged for 10 minutes at 1000 rpm. The cells were washed twice with PBS and counted in a hemocytometer using trypan blue to test for viability. The cells were brought to a concentration of 10^7 cells/ml using enriched RPMI containing 10% fetal calf serum (Ser Lab, Sussex, England); 5×10^−5M 2-mercaptoethanol and 3% of d-glutamine (Bio Lab Israel); stock solution 2 mM×1000 nonessential amino acids (Bio Lab, Israel); stock solution×100 and sodium pyruvate (Bio Lab, Israel) stock solution 1 mM×100. An additional three animals from each of the experimental groups were sacrificed and each of the spleens was processed separately using the same procedure.
The cell mixture was divided into two groups:
Supernatants were collected, centrifuged at 1,600 rpm for 10 minutes and stored at 4° C. until used. […] These supernatants were assayed for CSF activity. Prior to incubation of the cells, samples were removed from culture plates and smears of the cultures were made by cytocentrifugation. Slides were stained with May-Grunwald-Giemsa (1:10) solution and evaluated morphologically. A radioactive thymidine assay was used to determine IL-2 activity. Assay for IL-2 Activity • 1. Supernatants were tested for IL-2 activity by the proliferation of the IL-2 dependent cell line CTLD. The IL-2 assay is based on the growth dependence of these cultured T-cell lines on IL-2. T cells harvested from IL-2 dependent culture, washed and placed back in culture in the absence of IL-2 invariably die within 24 hr. By using tritiated thymidine incorporation (^3H-TdR) as an index of cultured T-cell replication, the IL-2 microassay provides a highly reproducible and quantitative indication of the amount of IL-2 activity in the supernatant prepared hereinabove. • 2. To assay a condition medium for IL-2 activity, a sample containing 5 x 10^4 CTLD cells, 10% fetal calf serum and 50% of supernatant in question, all were suspended in a final volume of 1 ml RPMI. Aliquots of 0.2 ml from each sample were placed in four replicate wells of 96 microwell tissue culture plates (NUNC). Conditioned medium was obtained from cultures of Charles River rat spleen cells stimulated with Con A that contained a known amount of IL-2 as a reference in all assays. • 3. The microwells were incubated for 24 hr at 37° C. after which 1 microcurie/well of ^3H-methylthymidine was added. Cells were then further incubated overnight, harvested with a cell harvester, and counted in a beta scintillator.

[4] = test system: IL-2; remark: listed apart in the source
[5] = test system: mice; conditions: 6 week old mice; preliminary
[6] = test system: mouse macrophages; assay: Survival of mouse macrophage monolayer incubated with complex
Experimental: All cultures were then infected with 10^4 PFU/plate. After 72 h incubation the supernatants were collected and the virus was titrated against Vera cells.

[7] = test system: IL-2 receptors; assay: IL-2 receptor sites on human mononuclear cells, fluoresceinated antibody; assay type: cell-based; conditions: 1 μg/ml; 24 hours incubation
Experimental: This example provides an assay to detect the presence of receptor sites for IL-2. […] The cells were washed twice with PBS and then incubated with a specific fluoresceinated antibody against IL-2 receptors as described in Uchiyama et al, J. Immunol.

[8] = test system: fibrosarcoma cells
[9] = 1 μg/ml H2O as drinking water over 4 days
[10] = 10 μg/ml H2O as drinking water over 4 days

## Cl[Te]1(Cl)(Cl)OCCO1.N [Example 1, equimolar complex of TeO2 and ethylene glycol, NH4Cl salt]
[1]; 0.005-5 μg/ml in PBS, one week, clones counted
  number of colonies / growth compared with control: major reduction in the number of colonies
[1]; 0.005-5 μg/ml tested
  concentration giving the maximum effect (inhibition): 0.05 µg/mL
[2]; [9]
  IL-2 content, cpm: 44500 cpm
  Percent increase as compared to control: +35%
[2]; [10]
  IL-2 content, cpm: 49179 cpm
  Percent increase as compared to control: +50%
[2]; orally in an aqueous diluent
  inducing lymphokine production when given orally: active
[3]; 1 μg IP in 0.2 ml DMSO/PBS, day 1
  IL-2 activity: 25.919 CPM and 34.326 CPM and 16.718 CPM
[3]; 1 μg IP in 0.2 ml DMSO/PBS, day 2
  IL-2 activity: 21.398 CPM and 22.050 CPM and 9.338 CPM
[3]; 1 μg IP in 0.2 ml DMSO/PBS, day 4
  IL-2 activity: 31.999 CPM and 14.226 CPM and 17.228 CPM
[3]; 1 μg IP in 0.2 ml DMSO/PBS, day 6
  IL-2 activity: 41.261 CPM and 80.314 CPM and 42.485 CPM
[3]; 1 μg IP in 0.2 ml DMSO/PBS, day 7
  IL-2 activity: 66.854 CPM and 58.094 CPM and 51.268 CPM
[3]; 10 μg IP in 0.2 ml DMSO/PBS, day 1
  IL-2 activity: 24.335 CPM and 21.193 CPM and 25.381 CPM
[3]; 10 μg IP in 0.2 ml DMSO/PBS, day 2
  IL-2 activity: 31.901 CPM and 36.390 CPM and 22.066 CPM
[3]; 10 μg IP in 0.2 ml DMSO/PBS, day 3
  IL-2 activity: 20.316 CPM and 18.288 CPM and 12.126 CPM
[4]; NORMAL subjects, PHA +, 5 μg 0.2 ml PBS
  IL-2 production: 30.4 CPM × 10^−3 and 38.9 CPM × 10^−3 and 36.4 CPM × 10^−3
[4]; NORMAL subjects, PHA +, 1:50 PBS dilution of 5 μg/0.2 ml
  IL-2 production: 38.9 CPM × 10^−3 and 53.5 CPM × 10^−3 and 48.2 CPM × 10^−3
[4]; NORMAL subjects, PHA +, 1:100 PBS dilution of 5 μg/0.2 ml
  IL-2 production: 54.2 CPM × 10^−3 and 44.8 CPM × 10^−3 and 38.6 CPM × 10^−3
[4]; NORMAL subjects, PHA +, 1:200 PBS dilution of 5 μg/0.2 ml
  IL-2 production: 49.8 CPM × 10^−3 and 38.3 CPM × 10^−3 and 38.6 CPM × 10^−3
[4]; NORMAL subjects, PHA −, 5 μg 0.2 ml PBS
  IL-2 production: 2.1 CPM × 10^−3 and 2.3** CPM × 10^−3
[4]; NORMAL subjects, PHA −, 1:50 PBS dilution of 5 μg/0.2 ml
  IL-2 production: 52.2 CPM × 10^−3 and 50.8 CPM × 10^−3 and 43.6 CPM × 10^−3
[4]; NORMAL subjects, PHA −, 1:100 PBS dilution of 5 μg/0.2 ml
  IL-2 production: 50.3 CPM × 10^−3 and 46.1 CPM × 10^−3 and 38.4 CPM × 10^−3
[4]; NORMAL subjects, PHA −, 1:200 PBS dilution of 5 μg/0.2 ml
  IL-2 production: 47.1 CPM × 10^−3 and 31.3 CPM × 10^−3 and 30.1 CPM × 10^−3
[4]; SLE patients, PHA +, 5 μg 0.2 ml PBS
  IL-2 production: 6.3 CPM × 10^−3 and 8.2 CPM × 10^−3 and 4.1 CPM × 10^−3
[4]; SLE patients, PHA +, 1:50 PBS dilution of 5 μg/0.2 ml
  IL-2 production: 24.2 CPM × 10^−3 and 28.1 CPM × 10^−3 and 23.8 CPM × 10^−3
[4]; SLE patients, PHA +, 1:100 PBS dilution of 5 μg/0.2 ml
  IL-2 production: 19.7 CPM × 10^−3 and 24.0 CPM × 10^−3 and 20.2 CPM × 10^−3
[4]; SLE patients, PHA +, 1:200 PBS dilution of 5 μg/0.2 ml
  IL-2 production: 15.4 CPM × 10^−3 and 18.6 CPM × 10^−3 and 16.8 CPM × 10^−3
[4]; SLE patients, PHA −, 5 μg 0.2 ml PBS
  IL-2 production: 2.0 CPM × 10^−3 and 2.4 CPM × 10^−3
[4]; SLE patients, PHA −, 1:100 PBS dilution of 5 μg/0.2 ml
  IL-2 production: 32.1 CPM × 10^−3 and 35.1 CPM × 10^−3 and 18.1 CPM × 10^−3
[5]
  LD50: 300 μg/25 g of body weight
[6]; 1 μg and 0.1 μg (others)
  state of macrophages after 24 h incubation: remained unaffected
[6]; 5 μg
  state of macrophages after 24 h incubation: died
[7]
  cells positive for IL-2 receptors: 20%
[8]; 10 μg IP at intervals, 4 days after inoculation with tumor cells
  % Survival: 100%
[8]; 10 μg IP at intervals, 9 days after inoculation with tumor cells
  % Survival: 100%
[8]; 10 μg IP at intervals, 23 days after inoculation with tumor cells
  % Survival: 100%
[8]; 10 μg IP at intervals, 30 days after inoculation with tumor cells
  % Survival: 100%
[8]; 10 μg IP at intervals, 37 days after inoculation with tumor cells
  % Survival: 100%
[8]; 39 days after inoculation with tumor cells, start of increased dosage regimen
  % Survival: 100%
[8]; 41 days after inoculation, increased dosage regimen from day 39
  % Survival: 100%
[8]; 43 days after inoculation, increased dosage regimen from day 39
  % Survival: 100%
[8]; 46 days after inoculation, increased dosage regimen from day 39
  % Survival: 80%
[8]; 48 days after inoculation, increased dosage regimen from day 39
  % Survival: 80%
[8]; 50 days after inoculation, increased dosage regimen from day 39
  % Survival: 80%
[8]; 53 days after inoculation, increased dosage regimen from day 39
  % Survival: 60%
[8]; 60 days after inoculation, increased dosage regimen from day 39
  % Survival: 40%
[8]; 67 days after inoculation, increased dosage regimen from day 39
  % Survival: 20%
[8]; 68 days after inoculation, increased dosage regimen from day 39
  % Survival: 0%
[8]; group (b), until just after the increased dosage regimen (day 39)
  mortality: ^1Day 39 marked the start of an increased dosage regimen to determine the toxicity of the complex of Example 1. The mortality results for group (b) were 0% until just after the increased dosage regimen.
